Literature values in patent publication US20250352520A1, “USE OF DEXPRAMIPEXOLE FOR THE TREATMENT OF EOSINOPHILIC COPD” (Areteia Therapeutics, Inc., priority 2024, published 2025).
Like-named read-outs stand apart in the source and are kept apart here.

Legend:
[1] = patients with COPD, cited from earlier work
[2] = severe, uncontrolled, eosinophilic asthma; cited from earlier work
[3] = COPD; cited from earlier work
[4] = cited from earlier work

## benralizumab: an anti-interleukin-5 receptor monoclonal antibody
[1]; all doses, throughout the trial
  blood eosinophils: substantial depletion of blood eosinophils
[1]
  exacerbations: failed to show statistically significant reduction of exacerbations
[2]
  eosinophils: effectively depleted eosinophils
  exacerbations: decreased exacerbations
  lung function: improved lung function

B1: mepolizumab: a humanized monoclonal antibody against interleukin-5 (antibody, chains of the INN, looked up, V domains shown)
VH: QVTLRESGPALVKPTQTLTLTCTVSGFSLTSYSVHWVRQPPGKGLEWLGVIWASGGTDYNSALMSRLSISKDTSRNQVVLTMTNMDPVDTATYYCARDPPSSLLRLDYWGRGTPVTVSS
VL: DIVMTQSPDSLAVSLGERATINCKSSQSLLNSGNQKNYLAWYQQKPGQPPKLLIYGASTRESGVPDRFSGSGSGTDFTLTISSLQAEDVAVYYCQNVHSFPFTFGGGTKLEIK
[3]
  blood eosinophil counts: effectively reduced blood eosinophil counts
  lung function and clinical outcomes: not associated with consistent improvements in lung function and clinical outcomes
[4]
  asthma exacerbations: significantly reduced asthma exacerbations
  biomarkers of asthma control: associated with improvements in biomarkers of asthma control, including eosinophil counts
